pIC50: −log10 of the molar value.
Target: T1, Tyrosinase (Agaricus bisporus, UniProt O42713)
T1 sequence (O42713 whole entry): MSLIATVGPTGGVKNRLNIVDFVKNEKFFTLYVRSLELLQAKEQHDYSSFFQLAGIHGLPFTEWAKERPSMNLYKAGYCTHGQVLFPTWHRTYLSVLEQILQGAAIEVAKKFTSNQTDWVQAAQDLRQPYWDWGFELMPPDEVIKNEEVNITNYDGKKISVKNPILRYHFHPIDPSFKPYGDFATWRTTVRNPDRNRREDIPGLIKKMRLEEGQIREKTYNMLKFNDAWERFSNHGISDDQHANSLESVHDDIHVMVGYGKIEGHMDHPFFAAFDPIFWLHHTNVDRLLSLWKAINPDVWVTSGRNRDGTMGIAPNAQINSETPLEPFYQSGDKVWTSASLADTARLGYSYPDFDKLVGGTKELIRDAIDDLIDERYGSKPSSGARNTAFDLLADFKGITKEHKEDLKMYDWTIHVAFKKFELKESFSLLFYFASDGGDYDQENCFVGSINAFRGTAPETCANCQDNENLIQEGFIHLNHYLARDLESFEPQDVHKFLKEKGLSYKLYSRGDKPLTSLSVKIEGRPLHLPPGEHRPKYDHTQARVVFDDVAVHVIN
Description: Inhibition of mushroom tyrosinase

pIC50 | SMILES
5.80 | Oc1ccc(CCc2ccc(O)cc2O[C@@H]2OC[C@@H](O)[C@H](O)[C@H]2O)c(O)c1
6.37 | Oc1ccc(CCc2ccc(O[C@@H]3OC[C@@H](O)[C@H](O)[C@H]3O)cc2O)c(O)c1
